From PMC10876669, “Substrate promiscuity of inositol 1,4,5-trisphosphate kinase driven by structurally-modified ligands and active site plasticity” (Nature Communications, 2024)
Where “and” joins values, the source holds several entries; their conditions need not be identical. Identical values can stand only once. Entries after “also recorded” stand apart in the source; their conditions may differ.

Columns and labels:
[1] = target: T1, IP3K-KD (human IP3K-KD A isoform, residues 187–461) (Homo sapiens, UniProt P23677); assay: Ligand displacement assay: fluorescence polarization (anisotropy) of 2-FITC-InsP3/IP3K-KD complex; type: binding; conditions: for IC50: 100 nM IP3K-KD, 2 nM 2-FITC-InsP3, 20 mM HEPES pH 7.5, 1 mM EDTA, 50 mM KCl, n=4 replicates, 5-s and 5-p racemic, read-out: IC50, displacement of 2-FITC-InsP3 from IP3K-KD; for Quality as IP3K ligand (in words): Fig. 6; for Kd: estimated Ki (Kd) from IC50 with [2-FITC-InsP3] 2 nM and its Kd 68 nM, read-out: Kd inferred from IC50 (Cheng and Prusoff)
T1 construct: human IP3K-KD A isoform (residues 187–461); GST (cleaved yes); made in house; host or cells: Escherichia coli BL21 star (DE3)
T1 sequence (P23677 187-461): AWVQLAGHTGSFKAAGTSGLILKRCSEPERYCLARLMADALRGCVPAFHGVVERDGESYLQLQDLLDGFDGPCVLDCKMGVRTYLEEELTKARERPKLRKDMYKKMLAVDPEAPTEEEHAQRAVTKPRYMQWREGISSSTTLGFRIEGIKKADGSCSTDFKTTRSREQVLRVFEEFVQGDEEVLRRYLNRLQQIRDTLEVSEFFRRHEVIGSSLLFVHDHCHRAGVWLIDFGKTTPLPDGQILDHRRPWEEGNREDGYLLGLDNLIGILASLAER
Method: (§1) A construct encoding human IP3K-KD A isoform (residues 187–461) into pOPTG vector was used[16]. The protein was expressed in Escherichia coli BL21 star (DE3) strain. Cells were grown at 37 °C to OD600 = 1.0 then induced with 0.4 mM IPTG for 18 h at 16 °C. Protein purification was performed by adapting the reported protocol. Cells were resuspended in buffer A (10 mM Tris pH 7.5 [4 °C], 200 mM NaCl and 2 mM DTT) and disrupted by sonication. Clarified cell lysate was diluted 1/4 in buffer B (10 mM Tris pH 7.5 [4 °C] and 2 mM DTT) and loaded into a 5 mL HiTrap heparin column (GE Healthcare) washed by buffer C (20 mM Tris pH 7.5, 50 mM NaCl and 2 mM DTT), and eluted with a 0.05 M–1 M salt gradient. The eluted sample was subsequently loaded on to a 5 mL glutathione–Sepharose HP column (GE Healthcare), washed with buffer A and eluted with reduced glutathione 10 mM (Sigma-Aldrich) in buffer A. The GST tag was cleaved with home-made TEV (tobacco etch virus) protease overnight at 4 °C, (1:40 TEV/protein mass ratio). After glutathione removal with a PD10 column, the cleaved protein was further purified using a 5 mL glutathione–Sepharose HP column (GE Healthcare) followed by gel filtration on a 16/600 Superdex200 (GE Healthcare) column equilibrated in buffer D (20 mM Tris pH 7.5 [4 °C], 0.05 M (NH4)2SO4 and 2 mM DTT). Protein samples were analyzed by SDS/PAGE, concentrated around 18 mg/mL and stored at −80 °C until use.
Binding of a competing/displacing ligand to protein is observed as a decrease in the polarization (anisotropy) of 2-FITC-InsP3. A comparison of the strength of binding of enzyme substrates, analogues and products to IP3K-KD was obtained by measurement of fluorescence polarization (here anisotropy) of 2-FITC-InsP3/IP3K-KD complex. Experimentally, 100 nM IP3K-KD was mixed with 2 nM 2-FITC-InsP3[37] in 20 mM HEPES pH 7.5, 1 mM EDTA and 50 mM KCl with the addition of displacing compounds over a range of 1 nM–50 μM. Assays were analyzed using a ClarioSTAR plate reader and IC50 values determined from fit of the data to a 4-parameter logistic as described. From IC50 values, we have estimated the Ki (Kd) values for the displacing ligands using the equation of Cheng and Prusoff:[69]1 Ki=IC50/1+L/Kd where [L] is the ligand (2-FITC-InsP3) concentration and Kd the dissociation constant for its interaction with IP3K-KD. […] Consequently, the Ki values for the displacing ligands differ trivially from their IC50 values.

[2] = target: T1, IP3K-KD (human IP3K-KD A isoform, residues 187–461); assay: Fluorescence thermal shift analysis (Tycho NT.6, inflection temperature Ti); type: binding; conditions: for Ti, transition 1 (mean inflection temperature) / Ti, transition 2 (mean inflection temperature): 10 μM IP3K-KD, 100 μM chiral or 200 μM racemic ligand, AMP-PNP or ADP, 100 μM MgCl2; for Ti, transition 1 (mean inflection temperature) / Ti, transition 2 (mean inflection temperature) / ΔTi, transition 1 / ΔTi, transition 2: mean ± SD, n=3; for ΔTi, transition 1: Ti minus Ti of apo IP3K-KD (44.4); for ΔTi, transition 2: Ti minus Ti of apo IP3K-KD (53.8); for Transition 1 Ti, individual measurement / Transition 2 Ti, individual measurement: source data of Fig. 6b/6c, single replicates; for Transition 1 Dti (Ti-Ti Apo) / Transition 1 Ti Mean / Transition 2 DTi (Ti-Ti Apo) / Transition 2 Ti Mean: source data of Fig. 6c, N 3; for Stabilization of IP3K-KD by ligand (in words): thermal shift, Fig. 6c
Method: as §1
Thermal protein denaturation was documented by recording intrinsic protein fluorescence at 330 and 350 nm wavelengths. The fluorescence recorded in each thermal run is plotted as 350/330 nm ratio and used to calculate the Inflection Temperature (Ti). Ti is the temperature at which a protein undergoes a transition in its folding state. This calculation is performed automatically by the Tycho NT.6 software. The protocol optimized for this procedure, involves a heating time of 2 min, a sample volume of 10 μl placed in a very thin capillary, and a temperature ramp from 35 °C (308 K) to 95 °C (368 K). For the experiment, IP3K-KD was diluted with buffer D to achieve a concentration of 0.31 mg/mL (10 μM). It was then mixed with 100 μM of chiral ligands or 200 μM of racemic ligands (all synthesized as stated in this work except InsP3 and InsP4 that were commercial from Avanti Polar Lipids), AMP-PNP (substrate analogues) or ADP (product-like ligands) and 100 μM MgCl2. Microsoft Excel was used to calculate and plot ΔTi values and standard deviations.

[3] = test system: permeabilized rat hepatocytes; design: method as in PMID 11405648; conditions: cited from earlier work
[4] = target: T2, IP3K-KD (Homo sapiens, UniProt P23677); assay: HPLC analysis of IP3K-KD reaction mixtures (substrate test); type: biochemical; conditions: 150 nM IP3K-KD, 500 μM analogue, 1 mM ATP, 2 h at 30 °C, Fig. 7a
T2 construct: human IP3K-KD A isoform (residues 187–461); GST (cleaved yes); made in house; host or cells: Escherichia coli BL21 star (DE3)
T2 sequence (P23677 187-461): as above
Method: as §1

[5] = test system: permeabilized rabbit platelets; design: method as in doi:10.1016/0960-894X(96)00399-X; conditions: cited from earlier work
[6] = target: T2, IP3K-KD; assay: Direct binding of 2-FITC-InsP3 to IP3K-KD, one-site binding model; conditions: GraphPad Prism

| IC50 [1] [µM] | Quality as IP3K ligand (in words) [1] | Kd [1] [µM] | Ti, transition 1 (mean inflection temperature) [2] | Ti, transition 2 (mean inflection temperature) [2] | ΔTi, transition 1 [2] | ΔTi, transition 2 [2] | Transition 1 Ti, individual measurement [2] | Transition 2 Ti, individual measurement [2] | Transition 1 Dti (Ti-Ti Apo) [2] | Transition 1 Ti Mean [2] | Transition 2 DTi (Ti-Ti Apo) [2] | Transition 2 Ti Mean [2] | Ability to act as IP3K substrate (in words) [4] | Kd [6] [µM] | Stabilization of IP3K-KD by ligand (in words) [2] | Binding to IP3K (in words) ([2]; Fig. 6b,c) | Compound | Ability to stimulate cellular Ca2+ release [3] | 45Ca2+ release relative to InsP3 [5] |
| --- | --- | --- | --- | --- | --- | --- | --- | --- | --- | --- | --- | --- | --- | --- | --- | --- | --- | --- | --- |
| 0.875 | maintains quite good binding to IP3K | 0.85 | 52.1 ± 0.1 ºC | 57.6 ± 0.1 ºC | 7.7 ± 0.3 ºC | 3.8 ± 0.2 ºC | 52.2 and 52.1 and 52.0 | 57.6 (2×) and 57.7 | 7.7 | 52.1 | 3.8 | 57.6 | – | – | – | – | O=P(O)(O)OCC1C(O)C(OP(=O)(O)O)C(O)C(OP(=O)(O)O)C1OP(=O)(O)O (racemic) [5-p, DL-6-deoxy-6-phosphoryloxymethyl-scyllo-inositol 1,2,4-trisphosphate] | abolishes the ability to stimulate cellular Ca^2+ release | – |
| 0.972 | good IP3K ligand | 0.944 | 51.3 ± 0.2 ºC | 57.0 ± 0.1 ºC | 6.9 ± 0.4 ºC | 3.2 ± 0.2 ºC | 51.5 and 51.1 and 51.3 | 56.9 (2×) and 57.1 | 6.9 | 51.3 | 3.2 | 57.0 | are also substrates | – | – | – | O=P(O)(O)O[C@@H]1[C@@H](O)[C@H](CO)[C@@H](OP(=O)(O)O)[C@H](OP(=O)(O)O)[C@H]1O (racemic) [5-s, DL−6-deoxy-6-hydroxymethyl-scyllo-inositol 1,2,4-trisphosphate] | – | equipotent with InsP3 itself |
| – | – | – | – | – | – | – | – | – | – | – | – | – | – | 0.068 | – | – | O=C(O)c1cc(NC(=S)NCCO[C@@H]2[C@H](O)[C@@H](OP(=O)(O)O)[C@H](OP(=O)(O)O)[C@@H](O)[C@@H]2OP(=O)(O)O)ccc1-c1c2ccc(=O)cc-2oc2cc(O)ccc12 [2-FITC-InsP3] | – | – |
| 0.205 | – | 0.199 | 51.5 ± 0.2 ºC | 57.3 ± 0.1 ºC | 7.1 ± 0.3 ºC | 3.5 ± 0.2 ºC | 51.4 and 51.5 and 51.7 | 57.4 (2×) and 57.2 | 7.1 | 51.5 | 3.5 | 57.3 | are also substrates | – | – | – | O=P(O)(O)O[C@@H]1O[C@H](CO)[C@@H](OP(=O)(O)O)[C@H](OP(=O)(O)O)[C@H]1O [6a–s, β-D-glucopyranosyl 1,3,4-trisphosphate] | – | – |
| 8.98 | – | 8.72 | 45.7 ± 0.5 ºC | 54.6 ± 0.0 ºC | 1.3 ± 0.6 ºC | 0.8 ± 0.2 ºC | 45.5 and 46.3 and 45.3 | 54.6 | 1.3 | 45.7 | 0.8 | 54.6 | weaker substrates | – | stabilize IP3K-KD much less than InsP3 | – | O=P(O)(O)O[C@H]1O[C@H](CO)[C@@H](OP(=O)(O)O)[C@H](OP(=O)(O)O)[C@H]1O [6b–s, α-D-glucopyranosyl 1,3,4-trisphosphate] | – | – |
| 0.656 | – | 0.637 | 49.7 ± 0.4 ºC | 56.1 ± 0.3 ºC | 5.3 ± 0.5 ºC | 2.3 ± 0.3 ºC | 50.2 and 49.5 and 49.4 | 55.9 and 56.1 and 56.4 | 5.3 | 49.7 | 2.3 | 56.1 | are also substrates | – | – | – | O=P(O)(O)OC[C@@H]1O[C@H](CO)[C@@H](OP(=O)(O)O)[C@H](OP(=O)(O)O)[C@H]1O [7a–s, β-D-glucopyranosylmethanol 3,4,1’-trisphosphate] | – | – |

| Compound | IC50 [1] [µM] | Quality as IP3K ligand (in words) [1] | Kd [1] [µM] | Ti, transition 1 (mean inflection temperature) [2] | Ti, transition 2 (mean inflection temperature) [2] | ΔTi, transition 1 [2] | ΔTi, transition 2 [2] | Transition 1 Ti, individual measurement [2] | Transition 2 Ti, individual measurement [2] | Transition 1 Dti (Ti-Ti Apo) [2] | Transition 1 Ti Mean [2] | Transition 2 DTi (Ti-Ti Apo) [2] | Transition 2 Ti Mean [2] | Ability to act as IP3K substrate (in words) [4] | Kd [6] [µM] | Stabilization of IP3K-KD by ligand (in words) [2] | Binding to IP3K (in words) ([2]; Fig. 6b,c) | Ability to stimulate cellular Ca2+ release [3] | 45Ca2+ release relative to InsP3 [5] |
| --- | --- | --- | --- | --- | --- | --- | --- | --- | --- | --- | --- | --- | --- | --- | --- | --- | --- | --- | --- |
| O=P(O)(O)OC[C@H]1O[C@H](CO)[C@@H](OP(=O)(O)O)[C@H](OP(=O)(O)O)[C@H]1O [7b–s, α-D-glucopyranosylmethanol 3,4,1’- trisphosphate] | 6.99 | – | 6.79 | 45.6 ± 0.7 ºC | 54.4 ± 0.3 ºC | 1.2 ± 0.7 ºC | 0.6 ± 0.3 ºC | 45.4 and 45.1 and 46.4 | 54.1 and 54.6 and 54.4 | 1.2 | 45.6 | 0.567 | 54.4 | weaker substrates; also recorded: poor substrate activity for IP3K | – | stabilize IP3K-KD much less than InsP3 | do not, or barely, bind IP3K | – | – |
